Results from PubChem BioAssay AID1963964 (Molecular Pharmacology Branch, DTP, NCI, 2024).

System: 997726-040-R-J2-PDC tumor spheroids, viability
Assay: Anticancer human tumor 997726-040-R-J2-PDC patient-derived squamous cell lung carcinoma cell line growth inhibition [PI3K]
Settings: spheroids with HUVEC and MSC; for viability, T/C: stronger effect = lower value
How it was run: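 Targeted small molecules plus PI3K inhibitors, half-log dose series from Cmax (default top 10 microM), were applied to heterotypic spheroids of cancer cells with HUVEC and MSCs. Viability indicated growth inhibition.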

[1] = curve of first compound, second compound 0.0316 µM
[2] = curve of first compound, second compound 0.1 µM
[3] = curve of first compound, second compound 0.316 µM
[4] = curve of first compound, second compound 1 µM
[5] = second compound 0.0316 µM, first compound 0.0316 µM
[6] = second compound 0.0316 µM, first compound 0.1 µM
[7] = second compound 0.0316 µM, first compound 0.316 µM
[8] = second compound 0.0316 µM, first compound 1 µM
[9] = second compound 0.0316 µM, first compound 3.16 µM
[10] = second compound 0.0316 µM, first compound 10 µM
[11] = second compound 0.1 µM, first compound 0.0316 µM
[12] = second compound 0.1 µM, first compound 0.1 µM
[13] = second compound 0.1 µM, first compound 0.316 µM
[14] = second compound 0.1 µM, first compound 1 µM
[15] = second compound 0.1 µM, first compound 3.16 µM
[16] = second compound 0.1 µM, first compound 10 µM
[17] = second compound 0.316 µM, first compound 0.0316 µM
[18] = second compound 0.316 µM, first compound 0.1 µM
[19] = second compound 0.316 µM, first compound 0.316 µM
[20] = second compound 0.316 µM, first compound 1 µM
[21] = second compound 0.316 µM, first compound 3.16 µM
[22] = second compound 0.316 µM, first compound 10 µM
[23] = second compound 1 µM, first compound 0.0316 µM
[24] = second compound 1 µM, first compound 0.1 µM
[25] = second compound 1 µM, first compound 0.316 µM
[26] = second compound 1 µM, first compound 1 µM
[27] = second compound 1 µM, first compound 3.16 µM
[28] = second compound 1 µM, first compound 10 µM
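Also: spheroids exposed to compounds for seven days before readout.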

Compound: CC1(C)CCC(CN2CCN(c3ccc(C(=O)NS(=O)(=O)c4ccc(NCC5CCOCC5)c([N+](=O)[O-])c4)c(Oc4cnc5[nH]ccc5c4)c3)CC2)=C(c2ccc(Cl)cc2)C1 + CC(Nc1ccc2c(c1)OCCn1cc(N3C(=O)OCC3C(F)F)nc1-2)C(N)=O
- IC50 (curve of first compound, second compound 0.00316 µM): 9.17 µM
- IC50 (curve of first compound, second compound 0.01 µM): 9.25 µM
- IC50 [1]: 5.87 µM
- IC50 [2]: < 0.0316 µM
- IC50 [3]: < 0.0316 µM
- IC50 [4]: < 0.0316 µM
- viability, T/C (second compound 0.00316 µM, first compound 0.0316 µM): 74.8%
- viability, T/C (second compound 0.00316 µM, first compound 0.1 µM): 82.8%
- viability, T/C (second compound 0.00316 µM, first compound 0.316 µM): 92.2%
- viability, T/C (second compound 0.00316 µM, first compound 1 µM): 83.6%
- viability, T/C (second compound 0.00316 µM, first compound 3.16 µM): 73.1%
- viability, T/C (second compound 0.00316 µM, first compound 10 µM): 48.1%
- viability, T/C (second compound 0.01 µM, first compound 0.0316 µM): 64.9%
- viability, T/C (second compound 0.01 µM, first compound 0.1 µM): 86.6%
- viability, T/C (second compound 0.01 µM, first compound 0.316 µM): 74.2%
- viability, T/C (second compound 0.01 µM, first compound 1 µM): 81.6%
- viability, T/C (second compound 0.01 µM, first compound 3.16 µM): 70%
- viability, T/C (second compound 0.01 µM, first compound 10 µM): 48.1%
- viability, T/C [5]: 60.8%
- viability, T/C [6]: 63.8%
- viability, T/C [7]: 70.7%
- viability, T/C [8]: 55%
- viability, T/C [9]: 62.9%
- viability, T/C [10]: 39.5%
- viability, T/C [11]: 42.5%
- viability, T/C [12]: 42.1%
- viability, T/C [13]: 43.5%
- viability, T/C [14]: 37.2%
- viability, T/C [15]: 39.8%
- viability, T/C [16]: 28.3%
- viability, T/C [17]: 30.7%
- viability, T/C [18]: 33.3%
- viability, T/C [19]: 32.9%
- viability, T/C [20]: 29.9%
- viability, T/C [21]: 24.1%
- viability, T/C [22]: 15.9%
- viability, T/C [23]: 27.9%
- viability, T/C [24]: 21.5%
- viability, T/C [25]: 24.5%
- viability, T/C [26]: 27.7%
- viability, T/C [27]: 24.8%
- viability, T/C [28]: 12.3%

Compound: Cn1nccc1Nc1nccc(-c2ccn(C(CO)c3ccc(Cl)c(F)c3)c(=O)c2)n1 (stereo not drawn) + CC(Nc1ncnc2nc[nH]c12)c1cc2cccc(Cl)c2c(=O)n1-c1ccccc1
- IC50 [1]: > 10 µM
- IC50 [2]: > 10 µM
- IC50 [3]: > 10 µM
- IC50 [4]: > 10 µM
- IC50 (curve of first compound, second compound 3.16 µM): > 10 µM
- IC50 (curve of first compound, second compound 10 µM): 0.0708 µM
- viability, T/C [5]: 93.3%
- viability, T/C [6]: 81.7%
- viability, T/C [7]: 77.2%
- viability, T/C [8]: 69.3%
- viability, T/C [9]: 64.2%
- viability, T/C [10]: 59.5%
- viability, T/C [11]: 91.6%
- viability, T/C [12]: 90.1%
- viability, T/C [13]: 73.9%
- viability, T/C [14]: 69.4%
- viability, T/C [15]: 62.5%
- viability, T/C [16]: 61.8%
- viability, T/C [17]: 89.6%
- viability, T/C [18]: 93.7%
- viability, T/C [19]: 74%
- viability, T/C [20]: 57.2%
- viability, T/C [21]: 64.3%
- viability, T/C [22]: 62.4%
- viability, T/C [23]: 96.5%
- viability, T/C [24]: 77.6%
- viability, T/C [25]: 74.2%
- viability, T/C [26]: 67.6%
- viability, T/C [27]: 58.8%
- viability, T/C [28]: 60.2%
- viability, T/C (second compound 3.16 µM, first compound 0.0316 µM): 73.9%
- viability, T/C (second compound 3.16 µM, first compound 0.1 µM): 62.7%
- viability, T/C (second compound 3.16 µM, first compound 0.316 µM): 61.6%
- viability, T/C (second compound 3.16 µM, first compound 1 µM): 55.6%
- viability, T/C (second compound 3.16 µM, first compound 3.16 µM): 57.8%
- viability, T/C (second compound 3.16 µM, first compound 10 µM): 48.2%
- viability, T/C (second compound 10 µM, first compound 0.0316 µM): 56.2%
- viability, T/C (second compound 10 µM, first compound 0.1 µM): 47.6%
- viability, T/C (second compound 10 µM, first compound 0.316 µM): 37.2%
- viability, T/C (second compound 10 µM, first compound 1 µM): 43.6%
- viability, T/C (second compound 10 µM, first compound 3.16 µM): 40.4%
- viability, T/C (second compound 10 µM, first compound 10 µM): 31.1%

Compound: Cn1ncnc1[C@H]1c2n[nH]c(=O)c3cc(F)cc(c23)N[C@@H]1c1ccc(F)cc1
- viability, T/C (compound 0.000316 µM): 98.9% [middle of 4 runs]
- viability, T/C (compound 0.001 µM): 99.5% [middle of 4 runs]
- viability, T/C (compound 0.00316 µM): 96.6% [middle of 4 runs]
- viability, T/C (compound 0.01 µM): 98.5% [middle of 4 runs]
- viability, T/C (compound 0.0316 µM): 116% [middle of 4 runs]
- viability, T/C (compound 0.1 µM): 102% [middle of 4 runs]
- IC50 (curve of compound): > 0.1 µM

Compound: CNC(=O)c1ccc(N2C(=S)N(c3ccc(C#N)c(C(F)(F)F)c3)C(=O)C2(C)C)cc1F
- viability, T/C (compound 0.0316 µM): 109% [middle of 4 runs]
- viability, T/C (compound 0.1 µM): 95.3% [middle of 4 runs]
- viability, T/C (compound 0.316 µM): 97% [middle of 4 runs]
- viability, T/C (compound 1 µM): 93.3% [middle of 4 runs]
- viability, T/C (compound 3.16 µM): 108% [middle of 4 runs]
- viability, T/C (compound 10 µM): 95.8% [middle of 4 runs]
- IC50 (curve of compound): > 10 µM
